Data published in patent US7192924B2, “Corticotropin releasing factor 2 receptor agonists” (priority 2002, dated 2007).
Peptide text beside a SMILES is read from it.

Tests used:
[1] = target: T1, CRF1R (Homo sapiens, UniProt P34998); experiment: CRF1R agonist activity (EC50, Emax), called comparative CRF binding; format: cell-based; details: read-out: CRF1R EC50
T1 sequence (P34998 24-415): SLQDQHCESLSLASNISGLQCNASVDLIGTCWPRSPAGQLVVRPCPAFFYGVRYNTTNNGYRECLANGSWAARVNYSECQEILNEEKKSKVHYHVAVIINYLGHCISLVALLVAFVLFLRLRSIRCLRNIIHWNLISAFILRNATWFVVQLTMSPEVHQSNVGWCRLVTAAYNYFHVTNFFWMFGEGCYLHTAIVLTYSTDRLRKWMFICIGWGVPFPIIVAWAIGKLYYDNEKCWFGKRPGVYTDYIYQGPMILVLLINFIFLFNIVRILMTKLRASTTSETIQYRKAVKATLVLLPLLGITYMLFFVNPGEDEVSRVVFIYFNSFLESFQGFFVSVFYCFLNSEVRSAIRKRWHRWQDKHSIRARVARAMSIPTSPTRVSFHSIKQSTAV
Method in brief: (§1)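 Peptides were applied to cells carrying a single CRFR subtype, then cAMP levels or CRE-driven reporter expression were quantified against vehicle-treated cells.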

[2] = target: T2, CRF2R (Homo sapiens, UniProt Q13324); experiment: CRF2R agonist activity (EC50, Emax), called comparative CRF binding; format: cell-based; details: read-out: CRF2R EC50
T2 sequence (Q13324 1-411): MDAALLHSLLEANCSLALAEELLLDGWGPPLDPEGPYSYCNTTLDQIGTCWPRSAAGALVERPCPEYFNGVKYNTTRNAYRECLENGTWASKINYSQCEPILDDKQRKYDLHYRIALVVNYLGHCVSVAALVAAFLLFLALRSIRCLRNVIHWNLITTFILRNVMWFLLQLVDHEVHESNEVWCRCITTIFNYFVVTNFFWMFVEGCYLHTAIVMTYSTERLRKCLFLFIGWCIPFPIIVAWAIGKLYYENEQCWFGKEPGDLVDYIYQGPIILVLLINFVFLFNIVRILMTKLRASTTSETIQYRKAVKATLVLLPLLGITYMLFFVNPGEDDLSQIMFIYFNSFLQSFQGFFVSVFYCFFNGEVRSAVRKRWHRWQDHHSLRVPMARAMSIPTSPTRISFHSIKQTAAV
Method in brief: as §1

| SMILES | EC50 [1] [nM] | EC50 [2] [nM] |
| --- | --- | --- |
| CC[C@H](C)[C@H](NC(=O)[C@H](C)NC(=O)[C@H](CC(N)=O)NC(=O)[C@H](CCC(N)=O)NC(=O)[C@H](CCC(=O)O)NC(=O)[C@H](C)NC(=O)[C@H](CCCNC(=N)N)NC(=O)[C@H](CCC(=O)O)NC(=O)[C@H](CCCNC(=N)N)NC(=O)[C@H](CCC(N)=O)NC(=O)[C@H](CO)NC(=O)[C@H](CCC(N)=O)NC(=O)[C@@H](NC(=O)[C@H](CCCNC(=N)N)NC(=O)[C@H](C)NC(=O)[C@H](CC(C)C)NC(=O)[C@H](CCC(=O)O)NC(=O)[C@H](CC(C)C)NC(=O)[C@H](CC(C)C)NC(=O)[C@@H](NC(=O)[C@H](CCCNC(=N)N)NC(=O)[C@H](CC(C)C)NC(=O)[C@H](CC(C)C)NC(=O)[C@@H](NC(=O)[C@H](Cc1ccccc1)NC(=O)[C@@H]1CCCN1C(=O)[C@H](CC(C)C)NC(=O)[C@H](CC(=O)O)NC(=O)[C@@H](NC(=O)[C@H](CO)NC(=O)[C@H](CC(C)C)NC(=O)[C@H](CO)NC(=O)[C@@H]1CCCN1C(=O)[C@H](CC(N)=O)NC(=O)[C@@H](N)CC(=O)O)[C@@H](C)CC)[C@@H](C)CC)[C@@H](C)O)[C@@H](C)O)C(=O)N[C@H](C(=O)N[C@@H](Cc1ccccc1)C(=O)N[C@@H](C)C(=O)N[C@@H](CO)C(=O)N[C@H](C(N)=O)C(C)C)[C@@H](C)CC [compound 181] (H-DNPSLSIDLPFILLRTLLELARTQSQRERAEQNAIIFASV-NH2; N-terminus assumed) | 154 | 5.22 |
| CC[C@H](C)[C@H](NC(=O)[C@H](C)NC(=O)[C@H](CC(N)=O)NC(=O)[C@H](CCC(N)=O)NC(=O)[C@H](CCC(=O)O)NC(=O)[C@H](C)NC(=O)[C@H](CCCNC(=N)N)NC(=O)[C@H](CCC(=O)O)NC(=O)[C@H](CCCNC(=N)N)NC(=O)[C@H](CCC(N)=O)NC(=O)[C@H](CO)NC(=O)[C@H](CCC(N)=O)NC(=O)[C@@H](NC(=O)[C@H](CCCNC(=N)N)NC(=O)[C@H](C)NC(=O)[C@H](CC(C)C)NC(=O)[C@H](CCC(=O)O)NC(=O)[C@H](CC(C)C)NC(=O)[C@H](CC(C)C)NC(=O)[C@@H](NC(=O)[C@H](CCCNC(=N)N)NC(=O)[C@H](CC(C)C)NC(=O)[C@H](CC(C)C)NC(=O)[C@H](Cc1ccc(O)cc1)NC(=O)[C@H](Cc1ccccc1)NC(=O)[C@@H]1CCCN1C(=O)[C@H](CC(C)C)NC(=O)[C@H](CC(=O)O)NC(=O)[C@@H](NC(=O)[C@H](CO)NC(=O)[C@H](CC(C)C)NC(=O)[C@H](CO)NC(=O)[C@@H]1CCCN1C(=O)[C@H](CC(N)=O)NC(=O)[C@@H](N)CC(=O)O)[C@@H](C)CC)[C@@H](C)O)[C@@H](C)O)C(=O)N[C@H](C(=O)N[C@@H](Cc1ccccc1)C(=O)N[C@@H](C)C(=O)N[C@@H](CO)C(=O)N[C@H](C(N)=O)C(C)C)[C@@H](C)CC [compound 183] (H-DNPSLSIDLPFYLLRTLLELARTQSQRERAEQNAIIFASV-NH2; N-terminus assumed) | 415 | 7.93 |
| CC[C@H](C)[C@H](N)C(=O)N[C@H](C(=O)N[C@@H](CC(C)C)C(=O)N[C@@H](CO)C(=O)N[C@@H](CC(C)C)C(=O)N[C@@H](CC(=O)O)C(=O)N[C@H](C(=O)N[C@H](C(=O)N[C@H](C(=O)NCC(=O)N[C@@H](CC(C)C)C(=O)N[C@@H](CC(C)C)C(=O)N[C@@H](CCC(N)=O)C(=O)N[C@H](C(=O)N[C@@H](CC(C)C)C(=O)N[C@@H](CC(C)C)C(=O)N[C@@H](CCC(=O)O)C(=O)N[C@@H](CCC(N)=O)C(=O)N[C@@H](C)C(=O)N[C@@H](CCCNC(=N)N)C(=O)N[C@@H](C)C(=O)N[C@@H](CCCNC(=N)N)C(=O)N[C@@H](C)C(=O)N[C@@H](C)C(=O)N[C@@H](CCCNC(=N)N)C(=O)N[C@@H](CCC(=O)O)C(=O)N[C@@H](CCC(N)=O)C(=O)N[C@@H](C)C(=O)N[C@H](C(=O)N[C@H](C(=O)N[C@@H](CC(N)=O)C(=O)N[C@@H](C)C(=O)N[C@@H](CCCNC(=N)N)C(=O)N[C@H](C(=O)N[C@@H](CC(C)C)C(=O)N[C@@H](C)C(=O)N[C@@H](CCCNC(=N)N)C(=O)N[C@H](C(N)=O)C(C)C)[C@@H](C)CC)[C@@H](C)O)[C@@H](C)O)[C@@H](C)CC)[C@@H](C)CC)C(C)C)C(C)C)C(C)C [compound 214] (H-IVLSLDVVIGLLQILLEQARARAAREQATTNARILARV-NH2; N-terminus assumed) | ≥ 100 | 74.3 |
| CC[C@H](C)[C@H](NC(=O)[C@H](C)NC(=O)[C@H](CC(N)=O)NC(=O)[C@H](CCC(N)=O)NC(=O)[C@H](CCC(=O)O)NC(=O)[C@H](C)NC(=O)[C@H](CCCNC(=N)N)NC(=O)[C@H](CCC(=O)O)NC(=O)[C@H](CCCNC(=N)N)NC(=O)[C@H](CCC(N)=O)NC(=O)[C@H](CO)NC(=O)[C@H](CCC(N)=O)NC(=O)[C@@H](NC(=O)[C@H](CCCNC(=N)N)NC(=O)[C@H](C)NC(=O)[C@H](CC(C)C)NC(=O)[C@H](CCC(=O)O)NC(=O)[C@H](CC(C)C)NC(=O)[C@H](CC(C)C)NC(=O)[C@@H](NC(=O)[C@H](CCCNC(=N)N)NC(=O)[C@H](CC(C)C)NC(=O)[C@H](CC(C)C)NC(=O)[C@H](Cc1ccc(O)cc1)NC(=O)[C@H](Cc1ccc(O)cc1)NC(=O)[C@@H]1CCCN1C(=O)[C@H](CC(C)C)NC(=O)[C@H](CC(=O)O)NC(=O)[C@@H](NC(=O)[C@H](CO)NC(=O)[C@H](CC(C)C)NC(=O)[C@H](CO)NC(=O)[C@@H]1CCCN1C(=O)[C@H](CC(N)=O)NC(=O)[C@@H](N)CC(=O)O)[C@@H](C)CC)[C@@H](C)O)[C@@H](C)O)C(=O)N[C@H](C(=O)N[C@@H](Cc1ccccc1)C(=O)N[C@@H](C)C(=O)N[C@@H](CO)C(=O)N[C@H](C(N)=O)C(C)C)[C@@H](C)CC [compound 263] (H-DNPSLSIDLPYYLLRTLLELARTQSQRERAEQNAIIFASV-NH2; N-terminus assumed) | 802 | 36.2 |
| CC[C@H](C)[C@H](N)C(=O)N[C@H](C(=O)N[C@@H](CC(C)C)C(=O)N[C@@H](CO)C(=O)N[C@@H](CC(C)C)C(=O)N[C@@H](CC(=O)O)C(=O)N[C@H](C(=O)N1CCC[C@H]1C(=O)N[C@H](C(=O)NCC(=O)N[C@@H](CC(C)C)C(=O)N[C@@H](CC(C)C)C(=O)N[C@@H](CCC(N)=O)C(=O)N[C@@H](CCCCN)C(=O)N[C@H](C(=O)N[C@H](C(=O)N[C@@H](CCC(=O)O)C(=O)N[C@H](C(=O)N[C@@H](CCC(=O)O)C(=O)N[C@@H](CCCCN)C(=O)N[C@@H](CCC(N)=O)C(=O)N[C@@H](CCC(=O)O)C(=O)N[C@@H](CCCCN)C(=O)N[C@@H](CCC(=O)O)C(=O)N[C@@H](CCCCN)C(=O)N[C@@H](CCC(N)=O)C(=O)N[C@@H](CCC(N)=O)C(=O)N[C@@H](C)C(=O)N[C@H](C(=O)N[C@H](C(=O)N[C@@H](CC(N)=O)C(=O)N[C@@H](C)C(=O)N[C@@H](CCCNC(=N)N)C(=O)N[C@H](C(=O)N[C@@H](CC(C)C)C(=O)N[C@@H](C)C(=O)N[C@@H](CCCNC(=N)N)C(=O)N[C@H](C(N)=O)C(C)C)[C@@H](C)CC)[C@@H](C)O)[C@@H](C)O)[C@@H](C)CC)[C@@H](C)CC)C(C)C)[C@@H](C)CC)C(C)C)C(C)C [compound 300] (H-IVLSLDVPIGLLQKVIEIEKQEKEKQQATTNARILARV-NH2; N-terminus assumed) | ≥ 1000 | 17.1 |
| CC[C@H](C)[C@H](NC(=O)[C@H](CCC(=O)O)NC(=O)[C@H](C)NC(=O)[C@H](CC(N)=O)NC(=O)[C@H](CCC(N)=O)NC(=O)[C@H](CCC(=O)O)NC(=O)[C@H](C)NC(=O)[C@H](CCCNC(=N)N)NC(=O)[C@H](CCC(=O)O)NC(=O)[C@H](CCCNC(=N)N)NC(=O)[C@H](CCC(N)=O)NC(=O)[C@H](CO)NC(=O)[C@H](CCC(N)=O)NC(=O)[C@@H](NC(=O)[C@H](CCCCN)NC(=O)[C@H](CCC(=O)O)NC(=O)[C@H](CC(C)C)NC(=O)[C@H](CCC(=O)O)NC(=O)[C@H](CC(C)C)NC(=O)[C@H](CC(C)C)NC(=O)[C@@H](NC(=O)[C@H](CCCNC(=N)N)NC(=O)[C@H](CC(C)C)NC(=O)[C@H](CC(C)C)NC(=O)[C@H](CC(C)C)NC(=O)[C@H](CC(C)C)NC(=O)[C@@H]1CCCN1C(=O)[C@H](CC(C)C)NC(=O)[C@H](CC(=O)O)NC(=O)[C@@H](NC(=O)[C@H](CO)NC(=O)[C@H](CC(C)C)NC(=O)[C@H](CO)NC(=O)[C@@H]1CCCN1C(=O)[C@H](CC(N)=O)NC(=O)[C@@H](N)CC(=O)O)[C@@H](C)CC)[C@@H](C)O)[C@@H](C)O)C(=O)N[C@@H](Cc1ccccc1)C(=O)N[C@@H](C)C(=O)N[C@@H](CCC(=O)O)C(=O)N[C@H](C(N)=O)C(C)C [compound 323] (H-DNPSLSIDLPLLLLRTLLELEKTQSQRERAEQNAEIFAEV-NH2; N-terminus assumed) | ≥ 1000 | 19.6 |
